In ChEMBL document CHEMBL5050844 (2019):

How the values were obtained:
[1] = Induction of anti-CD3/CD28 antibodies-stimulated human CD4+ T cell activation at 10 uM assessed fold increase in cell proliferation measured by flow cytometry analysis; assay type: functional, T cell line
[2] = Induction of anti-CD3/CD28 antibodies-stimulated human T cell activation at 10 uM assessed fold increase in GM-CSF secretion measured by ELISA assay; assay type: functional, T cell line
[3] = Induction of anti-CD3 antibodies-stimulated human T cell activation at 1 uM assessed fold increase in IL-2 secretion measured by ELISA assay; assay type: functional, T cell line; note: reference of the scale not given here
[4] = Induction of anti-CD3/CD28 antibodies-stimulated human T cell activation at 1 uM assessed fold increase in CD25 expression measured by ELISA assay; assay type: functional, T cell line
[5] = Induction of anti-CD3 antibodies-stimulated human T cell activation at 8 uM assessed fold increase in CD25 expression measured by ELISA assay; assay type: functional, T cell line; note: reference of the scale not given here
[6] = Induction of anti-CD3/CD28 antibodies-stimulated human anergic T cell activation at 10 uM assessed fold increase in IFN-gamma secretion measured by ELISA assay; assay type: functional, T cell line
[7] = Induction of anti-CD3/CD28 antibodies-stimulated human anergic T cell activation at 1.11 uM assessed fold increase in IFN-gamma secretion measured by ELISA assay; assay type: functional, T cell line
[8] = Induction of allogenic human T cell activation at 10 uM assessed fold increase in cell proliferation; assay type: functional, T cell line
[9] = Induction of anti-CD3 antibodies-stimulated human exhausted T cell activation assessed fold increase in GM-CSF secretion measured by ELISA assay; assay type: functional, T cell line; note: reference of the scale not given here
[10] = Induction of activation of human CD56+ CD3- NK cells co-cultured with human K562 cells in 1:1 ratio and assessed as increase in TNF-alpha secretion at 2.5 uM measured by ELISA assay; assay type: functional, Natural killer cell
[11] = Induction of anti-CD3 antibodies-stimulated human T cell activation at 1.11 uM assessed fold increase in IFN-gamma secretion measured by ELISA assay; assay type: functional, T cell line; note: reference of the scale not given here
[12] = Induction of activation of human CD56+ CD3- NK cells co-cultured with human K562 cells in 1:1 ratio and assessed as increase in IFN-gamma secretion at 0.625 uM measured by ELISA assay; assay type: functional, Natural killer cell
[13] = Induction of anti-CD3 antibodies-stimulated human T cell activation at 10 uM assessed fold increase in GM-CSF secretion measured by ELISA assay; assay type: functional, T cell line; note: reference of the scale not given here
[14] = Induction of anti-CD3 antibodies-stimulated human CD8+ T cell activation at 1.11 uM assessed fold increase in CD69 expression measured by flow cytometry analysis; assay type: functional, T cell line; note: reference of the scale not given here
[15] = Induction of allogenic human T cell activation at 3 uM assessed fold increase in cell proliferation; assay type: functional, T cell line
[16] = Induction of anti-CD3 antibodies-stimulated human T cell activation at 10 uM assessed fold increase in IFN-gamma secretion measured by ELISA assay; assay type: functional, T cell line; note: reference of the scale not given here
[17] = Induction of anti-CD3/CD28 antibodies-stimulated human T cell activation at 0.3 uM assessed fold increase in IL-2 secretion measured by ELISA assay; assay type: functional, T cell line
[18] = Induction of anti-CD3/CD28 antibodies-stimulated human T cell activation at 4 uM assessed fold increase in CD25 expression measured by ELISA assay; assay type: functional, T cell line
[19] = Induction of anti-CD3 antibodies-stimulated human T cell activation at 1.11 uM assessed fold increase in GM-CSF secretion measured by ELISA assay; assay type: functional, T cell line; note: reference of the scale not given here
[20] = Induction of anti-CD3 antibodies-stimulated human T cell activation at 8 uM assessed fold increase in IL-2 secretion measured by ELISA assay; assay type: functional, T cell line; note: reference of the scale not given here
[21] = Induction of anti-CD3/CD28 antibodies-stimulated human CD8+ T cell activation at 1.11 uM assessed fold increase in cell proliferation measured by flow cytometry analysis; assay type: functional, T cell line
[22] = Induction of anti-CD3/CD28 antibodies-stimulated human CD4+ T cell activation at 1.11 uM assessed fold increase in cell proliferation measured by flow cytometry analysis; assay type: functional, T cell line
[23] = Induction of anti-CD3 antibodies-stimulated human CD8+ T cell activation at 10 uM assessed fold increase in CD69 expression measured by flow cytometry analysis; assay type: functional, T cell line; note: reference of the scale not given here
[24] = Induction of anti-CD3/CD28 antibodies-stimulated human T cell activation at 0.3 uM assessed fold increase in CD25 expression measured by ELISA assay; assay type: functional, T cell line
[25] = system: B cell; assay: Induction of anti-IgM-stimulated human CD20+ B cell activation at 10 to 1000 uM assessed as increase in CD69 expression measured as mean fluorescence intensity AUC by flow cytometry analysis; assay type: functional, cell-based; settings: dose 10-1000 µM
[26] = Induction of anti-CD3/CD28 antibodies-stimulated human CD4+ T cell activation at 10 uM assessed fold increase in CD69 expression measured by flow cytometry analysis; assay type: functional, T cell line
[27] = Induction of anti-CD3 antibodies-stimulated human exhausted CD4+ T cell activation assessed fold increase in CTLA4 expression measured by flow cytometry analysis; assay type: functional, T cell line; note: reference of the scale not given here
[28] = Induction of anti-CD3 antibodies-stimulated human exhausted T cell activation assessed fold increase in IFN-gamma secretion measured by ELISA assay; assay type: functional, T cell line; note: reference of the scale not given here
[29] = Induction of activation of human CD56+ CD3- NK cells co-cultured with human K562 cells in 1:1 ratio and assessed as increase in IFN-gamma secretion at 10 uM measured by ELISA assay; assay type: functional, Natural killer cell
[30] = Induction of anti-CD3 antibodies-stimulated human T cell activation at 1 uM assessed fold increase in CD25 expression measured by ELISA assay; assay type: functional, T cell line; note: reference of the scale not given here
[31] = Induction of anti-CD3 antibodies-stimulated human exhausted T cell activation assessed fold increase in IL-2 secretion measured by ELISA assay; assay type: functional, T cell line; note: reference of the scale not given here
[32] = Induction of anti-CD3 antibodies-stimulated human CD4+ T cell activation at 10 uM assessed fold increase in CD69 expression measured by flow cytometry analysis; assay type: functional, T cell line; note: reference of the scale not given here
[33] = Induction of anti-CD3/CD28 antibodies-stimulated human T cell activation at 4 uM assessed fold increase in IL-2 secretion measured by ELISA assay; assay type: functional, T cell line
[34] = Induction of activation of human CD56+ CD3- NK cells co-cultured with human K562 cells in 1:1 ratio and assessed as increase in TNF-alpha secretion at 0.625 uM measured by ELISA assay; assay type: functional, Natural killer cell
[35] = Induction of anti-CD3/CD28 antibodies-stimulated human CD8+ T cell activation at 10 uM assessed fold increase in cell proliferation measured by flow cytometry analysis; assay type: functional, T cell line
[36] = Induction of anti-CD3/CD28 antibodies-stimulated human CD8+ T cell activation at 1.11 uM assessed fold increase in CD69 expression measured by flow cytometry analysis; assay type: functional, T cell line
[37] = Induction of anti-CD3/CD28 antibodies-stimulated human T cell activation at 1.11 uM assessed fold increase in IFN-gamma secretion measured by ELISA assay; assay type: functional, T cell line
[38] = Induction of anti-CD3 antibodies-stimulated human CD4+ T cell activation at 1.11 uM assessed fold increase in CD69 expression measured by flow cytometry analysis; assay type: functional, T cell line; note: reference of the scale not given here
[39] = Induction of anti-CD3/CD28 antibodies-stimulated human T cell activation at 10 uM assessed fold increase in IFN-gamma secretion measured by ELISA assay; assay type: functional, T cell line

| SMILES | fold change (FC) [1] | fold change (FC) [2] | fold change (FC) [3] | fold change (FC) [4] | fold change (FC) [5] | fold change (FC) [6] | fold change (FC) [7] | fold change (FC) [8] | fold change (FC) [9] | fold change (FC) [10] | fold change (FC) [11] | fold change (FC) [12] | fold change (FC) [13] | fold change (FC) [14] | fold change (FC) [15] | fold change (FC) [16] | fold change (FC) [17] | fold change (FC) [18] | fold change (FC) [19] | fold change (FC) [20] | further results |
| --- | --- | --- | --- | --- | --- | --- | --- | --- | --- | --- | --- | --- | --- | --- | --- | --- | --- | --- | --- | --- | --- |
| C[C@H](Sc1nncn1C)c1cccc(NC(=O)c2cc(C(=O)N3CC[C@H](O)C3)ccn2)c1 | >4 | >4 | <=0.05 | 1.01 | 0.801 | 2.51 | <=2.5 | <=2 | <=1.4 | <=1 | 3.01 | <=1 | 2.01 | 1.401 | <=2 | >4 | <=1 | 1.01 | 2.01 | <=0.05 | fold change (FC) [21]: >4; fold change (FC) [22]: >4; fold change (FC) [23]: 1.401; fold change (FC) [24]: 1.01; AUC [25]: < 0.5; fold change (FC) [26]: >1.601; fold change (FC) [27]: <=1.4; fold change (FC) [28]: <=1.4; fold change (FC) [29]: 1.01; fold change (FC) [30]: 0.601; fold change (FC) [31]: <=2.5; fold change (FC) [32]: >1.601; fold change (FC) [33]: <=1; fold change (FC) [34]: <=1; fold change (FC) [35]: >4; fold change (FC) [36]: 1.201; fold change (FC) [37]: 2.01; fold change (FC) [38]: >1.601; fold change (FC) [39]: >4 |
| Cn1cnnc1C(F)(F)C(C)(F)c1cccc(N2Cc3c(cc(CN4CC[C@@H](F)C4)cc3C(F)(F)F)C2=O)c1 (single isomer, unassigned) | >4 | >4 | >=0.201 | 1.51 | >=1.001 | >4.01 | 2.51 | 2.01 | 1.41 | 2.01 | <=2 | 2.01 | 2.01 | 1.201 | <=2 | <=2 | 2.51 | 1.51 | 1.51 | >=0.201 | fold change (FC) [21]: 2.01; fold change (FC) [22]: >4; fold change (FC) [23]: 1.401; fold change (FC) [24]: 1.31; AUC [25]: 1.01; fold change (FC) [26]: 1.401; fold change (FC) [27]: >1.61; fold change (FC) [28]: >1.61; fold change (FC) [29]: >=5; fold change (FC) [30]: >=1.001; fold change (FC) [31]: >3.01; fold change (FC) [32]: >1.601; fold change (FC) [33]: >=7.5; fold change (FC) [34]: 1.01; fold change (FC) [35]: >4; fold change (FC) [36]: 1.201; fold change (FC) [37]: 2.01; fold change (FC) [38]: 1.401; fold change (FC) [39]: >4 |
| Cc1cc2c(c(C3CC3)n1)CN(c1cccc([C@H](C)Cc3nncn3C)c1)C2=O | >4 | 2.01 | 0.051 | 1.01 | 0.801 | 2.51 | <=2.5 | <=2 | <=1.4 | <=1 | <=2 | 1.01 | 1.51 | <=1.2 | <=2 | <=2 | 1.01 | 1.01 | <=1.5 | 0.101 | fold change (FC) [21]: <=2; fold change (FC) [22]: <=2; fold change (FC) [23]: 1.201; fold change (FC) [24]: 1.01; AUC [25]: < 0.5; fold change (FC) [26]: 1.201; fold change (FC) [27]: <=1.4; fold change (FC) [28]: <=1.4; fold change (FC) [29]: 2.01; fold change (FC) [30]: 0.601; fold change (FC) [31]: <=2.5; fold change (FC) [32]: 1.201; fold change (FC) [33]: 2.51; fold change (FC) [34]: <=1; fold change (FC) [35]: 2.01; fold change (FC) [36]: <=1.2; fold change (FC) [37]: <=2; fold change (FC) [38]: <=1.2; fold change (FC) [39]: <=2 |
